Assay results reported in patent US20240174642A1, “HETEROCYCLIC COMPOUNDS CAPABLE OF ACTIVATING STING” (Boehringer Ingelheim International GmbH, priority 2022, published 2024).

Experiments:
dog STING (dSTING) = test: Dog differential scanning fluorimetry (DSF) assay, thermal shift of dog STING protein; format: binding; details: 100 μM compound, 3 μM recombinant dog STING (residues 149 to 375), 5× SYPRO Orange, 2% DMSO
Source text: The protein used for the biophysical experiments was a recombinant dog STING protein comprising its cytosolic cGAMP binding ectodomain. A codon optimized DNA sequence (for expression in Escherichia coli) encoding amino acid residues 149 to 375 of dog STING was synthesized by GeneArt (Regensburg, Germany) and inserted into a pET17b E. coli expression vector. The protein construct encodes an N-terminal 8× His-tag followed by tobacco etch virus protease (TEV) cleavage site and the above STING gene sequence. The resulting protein sequence for the used dog STING protein (SEQ ID No. 1) is listed below:
For expression of the above recombinant dog STING, the construct was transformed into E. coli BL21 DE3 strain and grown in shake flasks in LB-medium at 15° C. Expression was induced by addition of isopropyl β-D-1-thiogalactopyranoside to a final concentration of 1 mM and cultures shaken overnight. Cell pellets were centrifuged and stored at −70° C. until further use. Protein was purified by cell thawing in lysis buffer (20 mM TRIS-HCl, pH 8, 500 mM NaCl, 1 mM DTT, 0.5 mg/ml lysozyme, Complete Protease Inhibitor (Roche) and DNase (Roche)), followed by metal affinity purification using Ni-NTA resins and elution buffer consisting of 20 mM TRIS-HCl, pH 8, 500 mM NaCl, 1 mM DTT, 300 mM imidazole. Cleavage of the His-Tag using TEV-protease took place during dialysis in size exclusion buffer (20 mM TRIS-HCl, pH 8, 100 mM NaCl, 1 mM DTT) over night. To further purify the target protein a reverse Nickel affinity column was used and the flow through was applied to a size exclusion chromatography. The peak fraction was collected and concentrated to 5 mg/mL.
Dye fluorescence is quenched in aqueous environment and increases upon association of the dye with the hydrophobic parts of the unfolding protein. […] The inflection point of the curve represents the “melting” temperature of the protein (Tm) which is calculated numerically using the Boltzmann equation.
The thermal stability of the dog STING protein was measured in assay buffer containing 20 mM Tris, 150 mM NaCl at pH7.5. The assay uses 384-Well qPCR Plates (Catalog #781358, BRAND), Microseal®‘B’ Adhesive Seals for PCR Plates (Catalog #MSB-1001, BIO-RAD) and was run on a CFX384 Real-Time System (Bio-Rad). A DMSO stock solution of SYPRO orange (SIGMA 55692-500UL) was prepared. Compound stock solutions (10 mM in DMSO) were diluted 1:2 in DMSO to an intermediate compound concentration of 5 mM and then further diluted 1:40 in assay buffer resulting in a compound concentration of 125 μM and 2.5% DMSO. Fluorescent dye stock solution (5000× SYPRO Orange) was then mixed with target protein and buffer to a concentration of 15 μM Protein and 25× SYPRO Orange. 2 μl of this protein-dye-mixture was added to 8 μl compound solution. Final volume was 10 μL. 3-6 well positions were used as negative control (protein with 2% DMSO). The plates were prepared for duplicate measurement and centrifuged for 2 min at 1000 g. In the measurement, 160 cycles of 0.5° C. were used (temperature ramp 15 s/cycle, 15° C. to 95° C.).
Final Assay concentrations for compound characterization were 100 μM compound, 3 μM target protein, 5× SYPRO Orange, and 2% DMSO in 10 μl. All dispensing steps were performed using a HamiltonStar pipetting robot (Hamilton).
Dissociation curves were processed in Bio-Rad CFX Manager. Peak type was set to “negative”. Compound codes for screen were assigned in the plate layout.
Two replicates of TM measurements were averaged, and the standard deviation was calculated. In cases of SD>1.5° C. the measurement was repeated.
The melting point (Tm) obtained for STING protein alone was subtracted from T obtained for protein incubated with ligand to generate ΔTm values.

STING = test: Dog whole blood (dWB) assay, IFNb secretion by ELISA; format: cell-based; details: 4 h incubation at 37° C., % control relative to cGAMP stimulated control, read-out: EC50, cytokine secretion in dog whole blood (dWB) culture system as determined by canine Interferon-beta (IFNb) ELISA
Description: In this assay, freshly collected canine blood is incubated with a STING agonist, and interferon beta levels in the supernatant are quantified by ELISA. […] In accordance with the invention, a combination of a high dDSF and low dWB is especially favorable.
For the detection of STING activation in physiological environment dog whole blood (dWB) was stimulated by the cyclic dinucleotide cGAMP or a test compound. Pathway activity was monitored by measuring the IFNb production.
Compounds were delivered as 10 mM DMSO solution, diluted and transferred by using an Echo acoustic dispenser to the 384well assay plate (Greiner #781182), pre-filled with 10 μl 1× HBSS in each well (10× HBSS (+Ca/+Mg), #14065-049, Gibco). Typically, 8 concentrations were used with the highest concentration at 10 μM in the final assay volume followed by approximately 1:4 dilution steps. DMSO concentration was set to 0.1% in the final assay volume. The 384-well assay plate contained 20 test compounds and DMSO in control and cGAMP standard wells. The dog whole blood was collected as Na-Citrate blood (e.g., 3.8% in Monovettes from Sarstedt) and kept at 4° C. overnight until use in the assay. 80 μl of the whole blood samples were transferred to each well of the 384-well assay plates filled with compound/1×HBSS. Blood plates were kept at room temperature for 60 minutes and continuous shaking with 450 rpm, covered with the lid, but not sealed. A 10× cGAMP assay solution was diluted from a 2 mM stock solution in 1×HBSS immediately before use at room temperature. 10 μl of the 10× cGAMP/HBSS were added to the high control wells, whereas HBSS only was added to all compound and low control wells. After covering assay plates with the lid, blood plates were kept for a 4 h incubation at 37° C. in the incubator, without shaking. For the detection of IFNb in dog plasma the ELISA Kit for Canine Interferon Beta (Biotrend #SEA222Ca) was used. Whole blood assay plates were centrifuged at 1000 g for 10 minutes at 8° C. 40 μl of supernatant was transferred with a 96 well pipetting robotics from the 384 well whole blood plate to the corresponding 96 well ELISA plate, pre-filled with […] assay diluent in each well. Plates were sealed with microplate seals and kept at 4° C. overnight again. ELISA plates were brought to room temperature, followed by a 1 h incubation at 37° C. in the incubator. Detection Reagent A working solution was prepared by diluting Detection Reagent A 1:100 in Assay Reagent A. Liquid was then removed from the 96 well ELISA plate to add 100 μL Detection Reagent A working solution to each well. ELISA plates were covered with the plate sealer and incubated for 1 hour at 37° C. in the incubator. The 1× Wash buffer was prepared by diluting the 30× Wash Buffer Concentrate in H2O. Detection Reagent B working solution was prepared by diluting Detection Reagent B 1:100 in Assay Reagent B. The ELISA plates were washed three times with 350 μl wash buffer and afterwards inverted and blotted against absorbent paper to remove any liquid. 100 μL of Detection Reagent B working solution was added to each well of the ELISA plates, which are then covered with the plate sealer and incubated for 30 minutes at 37° C. in the incubator. After incubation the ELISA assay plates were washed five times with 350 μl wash buffer and were again inverted and blotted against absorbent paper to remove any remaining liquid. 90 μL of TMB Substrate was added to each well of the ELISA plates, which were then covered with the plate sealer and incubated for 15 minutes at 37° C. in the incubator. The reaction was stopped by adding 50 μL stop solution and absorbance was measured at 450 nm immediately.
For data evaluation and calculation, % control calculation of each well was based on the mean of high (cGAMP stimulated control) and mean of low (unstimulated control) controls by using the following standard 4 parameter logistic regression formula: […]

Chain of dog STING (dSTING) (as listed by the source): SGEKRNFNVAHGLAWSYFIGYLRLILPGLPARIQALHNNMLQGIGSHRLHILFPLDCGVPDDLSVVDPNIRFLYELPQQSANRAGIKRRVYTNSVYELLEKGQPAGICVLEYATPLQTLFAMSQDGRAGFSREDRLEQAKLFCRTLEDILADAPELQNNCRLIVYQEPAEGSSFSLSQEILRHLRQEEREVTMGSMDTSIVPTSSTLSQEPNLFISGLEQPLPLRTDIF

Substance: (1S,4R,5R)-2-(5-{2″,7-dimethyl-1H,2″H-[3,4″-biindazol]-1-yl}pyridin-2-yl)-2-azabicyclo[2.2.1]heptane-5-carboxylic acid and 1R,4S,5S)-2-(5-{2′,7-dimethyl-1H,2′H-[3,4′-biindazol]-1-yl}pyridin-2-yl)-2-azabicyclo[2.2.1]heptane-5-carboxylic acid [Example 5]
- Delta TM, interaction with dog STING as determined by DSF (dDSF) (dog STING (dSTING)): 33.5 °C
- EC50 (STING): 529 nM
